Reference: patent publication US10590130B2, “Chemical compounds” (AstraZeneca AB, priority 2016, dated 2020)

Test: Human hepatocyte assay (metabolic stability)
Format: in vitro ADME
Conditions: human hepatocytes, in vitro intrinsic clearance
Protocol: The metabolic stability of compounds in human hepatocytes was assessed using the following protocol: • 1. Prepare 10 mM stock solutions of compound and control compounds in appropriate solvent (DMSO). Place incubation medium (L-15 Medium) in a 37° C. water bath, and allow warming for at least 15 minutes prior to use. • 2. Add 80 μL of acetonitrile to each well of the 96-well deep well plate (quenching plate). • 3. In a new 96-well plate, dilute the 10 mM test compounds and the control compounds to 100 μM by combining 198 μL of acetonitrile and 2 μL of 10 mM stock. • 4. Remove a vial of cryopreserved (less than −150° C.) human hepatocytes (LiverPool™ 10 Donor Human hepatocytes obtained from Celsis IVT. Chicago, Ill. (Product No. S01205)) from storage, ensuring that vials remain at cryogenic temperatures until thawing process ensues. As quickly as possible, thaw the cells by placing the vial in a 37° C. water bath and gently shaking the vials. Vials should remain in water bath until all ice crystals have dissolved and are no longer visible. After thawing is complete, spray vial with 70% ethanol, transfer the vial to a bio-safety cabinet. • 5. Open the vial and pour the contents into the 50 mL conical tube containing thawing medium. Place the 50 mL conical tube into a centrifuge and spin at 100 g for 10 minutes. […] Using Cellometer® Vision, count cells and determine the viable cell density. Cells with poor viability (<80% viability) are not acceptable for use. […] Transfer 247.5 μL of hepatocytes into each well of a 96-well cell culture plate. Place the plate on Eppendorf Thermomixer Comfort plate shaker to allow the hepatocytes to warm for 10 minutes. • 8. Add 2.5 μL of 100 μM test compound or control compounds into an incubation well containing cells, mix to achieve a homogenous suspension at 0.5 min, which when achieved, will define the 0.5 min time point. At the 0.5 min time, transfer 20 μL of incubated mixture to wells in a “Quenching plate” followed by vortexing. • 9. Incubate the plate at 37° C. at 900 rpm on an Eppendorf Thermomixer Comfort plate shaker. […] Centrifuge the quenching plates for 20 minutes at 4,000 rpm. 4 different compounds are pooled into one cassette and used for LC/MS/MS analysis.
All calculations were carried out using Microsoft Excel. Peak areas were determined from extracted ion chromatograms. In vitro intrinsic clearance (in vitro Clint, in […]) of parent compound was determined by regression analysis of the Ln percent parent disappearance vs. time curve.
V=incubation volume (0.25 mL);
N=number of hepatocytes per well (0.25×10^6 cells).

Structure (SMILES)	Clint
COCC(F)(F)CN1[C@H](c2ccc(NC3CN(CCCF)C3)cc2OC)c2ccc3[nH]ncc3c2C[C@H]1C [Example 1, N-(4-((6S,8R)-7-(2,2-difluoro-3-methoxypropyl)-8-methyl-6,7,8,9-tetrahydro-3H-pyrazolo[4,3-f]isoquinolin-6-yl)-3-methoxyphenyl)-1-(3-fluoropropyl)azetidin-3-amine]	11 μL/min/10^6 cells
COCC(F)(F)CN1[C@H](c2ccc(NC3CN(CCCF)C3)cn2)c2ccc3[nH]ncc3c2C[C@H]1C [Example 2, 6-((6S,8R)-7-(2,2-difluoro-3-methoxypropyl)-8-methyl-6,7,8,9-tetrahydro-3H-pyrazolo[4,3-f]isoquinolin-6-yl)-N-(1-(3-fluoropropyl)azetidin-3-yl)pyridin-3-amine]	6 μL/min/10^6 cells
C[C@@H]1Cc2c(ccc3[nH]ncc23)[C@@H](c2ccc(NC3CN(CCCF)C3)cn2)N1CC1(F)CC1 [Example 3, 6-((6S,8R)-7-((l-fluorocyclopropyl)methyl)-8-methyl-6,7,8,9-tetrahydro-3H-pyrazolo[4,3-f]isoquinolin-6-yl)-N-(1-(3-fluoropropyl)azetidin-3-yl)pyridin-3-amine]	5 μL/min/10^6 cells
COc1cc(NC2CN(CCCF)C2)ccc1[C@@H]1c2ccc3[nH]ncc3c2C[C@@H](C)N1CC1(F)CC1 [Example 6, N-(4-((6S,8R)-7-((l-fluorocyclopropyl)methyl)-8-methyl-6,7,8,9-tetrahydro-3H-pyrazolo[4,3-f]isoquinolin-6-yl)-3-methoxyphenyl)-1-(3-fluoropropyl)azetidin-3-amine]	2 μL/min/10^6 cells
C[C@@H]1Cc2c(ccc3[nH]ncc23)[C@@H](c2c(F)cc(NC3CN(CCCF)C3)cc2F)N1CC1(F)CC1 [Example 11, N-(3,5-difluoro-4-((6S,8R)-7-((1-fluorocyclopropyl)methyl)-8-methyl-6,7,8,9-tetrahydro-3H-pyrazolo[4,3-f]isoquinolin-6-yl)phenyl)-1-(3-fluoropropyl)azetidin-3-amine]	7 μL/min/10^6 cells
C[C@@H]1Cc2c(ccc3[nH]ncc23)[C@@H](c2ncc(NC3CN(CCCF)C3)cc2F)N1CC1(F)CC1 [Example 18, 5-fluoro-6-((6S,8R)-7-((1-fluorocyclopropyl)methyl)-8-methyl-6,7,8,9-tetrahydro-3H-pyrazolo[4,3-f]isoquinolin-6-yl)-N-(1-(3-fluoropropyl)azetidin-3-yl)pyridin-3-amine]	3 μL/min/10^6 cells
COc1cc(NC2CN(CCCF)C2)ccc1[C@@H]1c2ccc3[nH]ncc3c2C[C@@H](C)N1CC(C)(F)F [Example 19, N-(4-((6S,8R)-7-(2,2-difluoropropyl)-8-methyl-6,7,8,9-tetrahydro-3H-pyrazolo[4,3-f]isoquinolin-6-yl)-3-methoxyphenyl)-1-(3-fluoropropyl)azetidin-3-amine]	5 μL/min/10^6 cells
COc1cc(NC2CN(CCCF)C2)ccc1[C@@H]1c2ccc3[nH]ncc3c2C[C@@H](C)N1CC(F)F [Example 21, N-(4-((6S,8R)-7-(2,2-difluoroethyl)-8-methyl-6,7,8,9-tetrahydro-3H-pyrazolo[4,3-f]isoquinolin-6-yl)-3-methoxyphenyl)-1-(3-fluoropropyl)azetidin-3-amine]	6 μL/min/10^6 cells
C[C@@H]1Cc2c(ccc3[nH]ncc23)[C@@H](c2ccc(NC3CN(CCCF)C3)cn2)N1CC(F)F [Example 25, 6-((6S,8R)-7-(2,2-difluoroethyl)-8-methyl-6,7,8,9-tetrahydro-3H-pyrazolo[4,3-f]isoquinolin-6-yl)-N-(1-(3-fluoropropyl)azetidin-3-yl)pyridin-3-amine]	5 μL/min/10^6 cells
COc1cc(NC2CN(CCCF)C2)ccc1[C@@H]1c2ccc3[nH]ncc3c2C[C@@H](C)N1CC(F)(F)F [Example 28, 1-(3-fluoropropyl)-N-(3-methoxy-4-((6S,8R)-8-methyl-7-(2,2,2-trifluoroethyl)-6,7,8,9-tetrahydro-3H-pyrazolo[4,3-f]isoquinolin-6-yl)phenyl)azetidin-3-amine]	5 μL/min/10^6 cells
